Non-standard residues stand in square brackets, D forms with d. No end group written: not given here. sY = N[C@@H](Cc1ccc(OS(=O)(=O)O)cc1)C(=O)O
Columns and labels:
[1] = tested on: Y1 binding to purified glycocalicin; assay: ELISA: effect of synthetic GPIbα peptides on Y1 binding to purified glycocalicin; design: species or system human; settings: 0.25 μg/well Y1
Procedure: ELISA assays were developed to evaluate the effect of the GPIb derived synthetic peptides on the binding of Y1 to purified glycocalicin. In addition, FACS analysis using washed platelets was carried out. To evaluate the importance of sulfated tyrosine within the Y1 binding site of GPIb, a competitive binding FACS analysis was used. Y1-scFv at a concentration of 1 μg was preincubated with different peptides at concentrations of 2.5 and 200 μM. After a preincubation for 30 minutes at room temperature the mixture was added to a tube containing ˜10^7 washed platelets and the binding of Y1 to the washed platelets was assessed using polyclonal rabbit anti-scFv-PE. The inhibitory effect of the peptides compared to control binding (Y1 alone) was evaluated by measuring the residual binding of Y1 to washed platelets. The peptides and the results are described in Table 1 and are similar to results that were observed using the same peptides in an ELISA assay (Table B). In both assays, a control level of Y1 binding was determined, as follows. A polystyrene microtiter maxisorb plate was coated with (a) purified glycocalicin or (b) washed platelets. […] The plate was then incubated with rabbit anti-scFv followed by addition of anti rabbit —HRP (horse radish peroxidase) and HRP substrate. The level of anti rabbit —HRP binding was measured by the intensity of the color produced, and the level of anti rabbit —HRP binding correlates with the level of binding of anti Y1-scFv and the level of binding of Y1. The optical density was measured at A405. Each sample was assayed in duplicate, and the average was calculated.
The effect of synthetic GPIbα peptides on Y1 binding to purified glycocalicin was evaluated by mixing varying concentrations of the peptides with a constant amount of Y1. After a preincubation for 30 minutes at room temperature, the mixture was added to a polystyrene microtiter maxisorb plate coated with purified glycocalicin, as described for evaluation of Y1 binding in the absence of peptides. The inhibitory effect of the peptides was evaluated by measuring the residual binding of Y1 to glycocalicin using rabbit anti Y1scFv and anti rabbit —HRP antibodies, as described for evaluation of Y1 binding in the absence of peptides. This study was performed with four peptides representing various subsets of the sequence 268 to 285 and a control peptide. Each peptide was tested at different concentrations: 200 μM, 25 μM, 2.5 μM, and 0.5 μM.

[2] = tested on: Y1 binding to washed platelets; assay: Comparative FACS: effect of synthetic GPIbα peptides on Y1 binding to washed platelets; design: species or system human
Procedure: ELISA assays were developed to evaluate the effect of the GPIb derived synthetic peptides on the binding of Y1 to purified glycocalicin. In addition, FACS analysis using washed platelets was carried out. To evaluate the importance of sulfated tyrosine within the Y1 binding site of GPIb, a competitive binding FACS analysis was used. Y1-scFv at a concentration of 1 μg was preincubated with different peptides at concentrations of 2.5 and 200 μM. After a preincubation for 30 minutes at room temperature the mixture was added to a tube containing ˜10^7 washed platelets and the binding of Y1 to the washed platelets was assessed using polyclonal rabbit anti-scFv-PE. The inhibitory effect of the peptides compared to control binding (Y1 alone) was evaluated by measuring the residual binding of Y1 to washed platelets. The peptides and the results are described in Table 1 and are similar to results that were observed using the same peptides in an ELISA assay (Table B). In both assays, a control level of Y1 binding was determined, as follows. A polystyrene microtiter maxisorb plate was coated with (a) purified glycocalicin or (b) washed platelets. After extensive washing, 0.5 μg/well of Y1 was added. The plate was then incubated with rabbit anti-scFv followed by addition of anti rabbit —HRP (horse radish peroxidase) and HRP substrate. The level of anti rabbit —HRP binding was measured by the intensity of the color produced, and the level of anti rabbit —HRP binding correlates with the level of binding of anti Y1-scFv and the level of binding of Y1. The optical density was measured at A405. Each sample was assayed in duplicate, and the average was calculated.

[3] = tested on: scFv Y1 binding to glycocalicin; assay: Competitive binding ELISA of sulfated peptides (scFv Y1 binding to immobilized glycocalicin); design: species or system human; settings: peptide 1, 10 and 100 μM, preincubated 10 minutes with scFv Y1
Procedure: A competitive binding ELISA assay was used to assess the importance of the presence and position of sulfated tyrosines to the binding of peptides to Y1.
Glycocalicin was immobilized on a Maxisorb plate. scFv Y1 was preincubated with a peptide of interest for 10 minutes at three different concentrations (1, 10 and 100 μM) in order to observe a dose response. (Table 12). After preincubation, the mixture (Y1+peptide) was added to the plate, and binding of scFv Y1 was assessed using polyclonal rabbit anti-VL, which recognizes the VL chain of scFv Y1, followed by anti-rabbit-HRP. In mixtures in which the peptide bound to scFv Y1, a decrease in the binding of scFv Y1 to glycocalicin compared to control binding was observed.

KG-1 cells = assay: AML KG-1 model in SCID/NOD mice; format: in vivo
Procedure: The in vivo mouse model for human AML uses SCID/NOD mice (Jackson Laboratories) inoculated with KG-1 cells derived from a human AML cell line.
In a first experiment, NOD/SCID mice were pretreated with 100 mg/kg CYTOXAN®. Four days post CYTOXANT injection, KG-1 cells were injected intravenously into the tail vein of six groups of mice. (Table N, Groups 2 and 5-9). One group of mice (Table N, Group 1) was injected with PBS alone (control).
Beginning 19 days post KG-1 injection mice were treated with: CONY1, Doxorubicin, CONY1-Doxorubicin conjugate, or Mylotarg®. (Mylotarg® is a monoclonal antibody (anti CD33) conjugated chemically to calcheamicin recently approved by the FDA for treatment of AML patients age 60 and over in a first relapse.) Mice were treated once or three times per week for three weeks. One group (group 2) of KG-1 inoculated mice Were left untreated. (Table N). Two other groups of mice (groups 3 and 4) were injected with KG-1 cells that were previously incubated with CONY1 or 181-scFv (a negative, non-specific control antibody) in serum free RPMI containing 1% BSA at 4° C. for 1 h. The antibodies were used at a concentration of 0.25 mg scFv/10^8 cells (75 μg/mouse). Before injection into the mice the preincubated KG-1 cells were washed are resuspended in RPMI. The KG-1 cells in RPMI were inoculated into mice at a concentration of 75 μg scFv/0.2 ml RPMI per mouse. Group 3 mice were inoculated with KG-1+CONY1, and group 4 mice were inoculated with KG-1+181-scFv. (Table N). […]
Mice were sacrificed from 60 to 65 days post cell injection. Bone marrow and blood samples were analyzed by flow cytometry using mouse anti human CD34-FITC (IQP 144F) (or anti CD44-FITC (MCA89F, Serotec)) and Y1-Biotin/SAV-PE. […]
An additional experiment was performed in which SCID-NOD mice were i.v. injected with 3×10^4 MOLT-4 cells/mouse 5 days post treatment with cyclophosphamide. […] Bone marrow was extracted and analyzed by FACS analysis using a commercially available antiCD44 antibody for the detection of MOLT-4 cells in the mice bone marrow cell population.

Compound | Residual Binding of Y1 (% of baseline) ([1]; peptide 0.5 μM) | Residual Binding of Y1 (% of baseline) ([1]; peptide 2.5 μM) | Residual Binding of Y1 (% of baseline) ([1]; peptide 25 μM) | Residual Binding of Y1 (% of baseline) ([1]; peptide 200 μM) | Residual Binding of Y1 (% of baseline) (Geo Mean) ([2]; peptide 2.5 μM) | Residual Binding of Y1 (% of baseline) (Geo Mean) ([2]; peptide 200 μM) | inhibition of Y1 binding to glycocalicin (in words) [3] | percentage of KG-1 cells in bone marrow compared to untreated group 2 (in words) (KG-1 cells; 0.1 mg/kg free Doxorubicin, 3 times per week (group 6)) | KG-1 cells in bone marrow (in words) (KG-1 cells; 0.2 mg/kg, 1 time per week (group 9)) | development of the malignancy / prevalence of bone marrow cancer (in words) (KG-1 cells; additional experiment, day 60, CONY1 scFv 75 μg/mouse three times/week, Mylotarg 7 μg/mouse once a week)
GDEGDTDLY*DY*Y*PEEDTE (GDEGDTDL[sY]D[sY][sY]PEEDTE) [P-1-S, residues 268-285 of GPIbα, Y* sulfated tyrosine] | 89 % of baseline | 62 % of baseline | 25 % of baseline | 0 % of baseline | 41 % of baseline | 5 % of baseline | did inhibit | – | – | –
GDEGDTDLY*DY*Y*P (GDEGDTDL[sY]D[sY][sY]P) [P-3-S, residues 268-280 of GPIbα, Y* sulfated tyrosine] | 80 % of baseline | 67 % of baseline | 21 % of baseline | – | 82 % of baseline | 26 % of baseline | – | – | – | –
GDEGDTDLYDYYPEEDTE [P-1, residues 268-285 of GPIbα, non-sulfated] | 88 % of baseline | 94 % of baseline | 71 % of baseline | 61 % of baseline | 106 % of baseline | 87 % of baseline | – | – | – | –
COc1cccc2c1C(=O)c1c(O)c3c(c(O)c1C2=O)C[C@@](O)(C(=O)CO)C[C@@H]3O[C@H]1C[C@H](N)[C@H](O)[C@H](C)O1 [Doxorubicin] | – | – | – | – | – | – | – | statistically significant (p<0.05) lower percentage | – | –
Mylotarg: monoclonal antibody (anti CD33) conjugated chemically to calcheamicin, FDA approved for AML | – | – | – | – | – | – | – | – | free of KG 1 cells | completely inhibited
TDLY*DY*Y*PEEDTE (TDL[sY]D[sY][sY]PEEDTE) [P-2-S, residues 273-285 of GPIbα, Y* sulfated tyrosine] | 78 % of baseline | 52 % of baseline | 15 % of baseline | – | 61 % of baseline | 7 % of baseline | – | – | – | –
REEGRQHFFLLEGRSSYS [negative control peptide, reference compound] | 121 % of baseline | 100 % of baseline | 89 % of baseline | 85 % of baseline | 96 % of baseline | 119 % of baseline | – | – | – | –
